According to PubChem BioAssay (NCI):
In brackets after ≈: the same amount, converted by molar mass. Several values for one entry are separate records, joined by “and”; a condition that tells them apart may be missing. Identical values can stand only once.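 All cell lines were grown in 96-well plates and treated with compound for 48 hours. Here, GI50 denotes the concentration required for 50% inhibition of growth. The concentration for full growth arrest is given as TGI.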

Legend:
Assay in all cases: DTP human tumour cell line panel, 48 h
HT29 colon = system: HT29 colon
T-47D breast = system: T-47D breast
MDA-MB-231 breast = system: MDA-MB-231 breast
NCI-H522 lung = system: NCI-H522 lung
RPMI-8226 leukemia = system: RPMI-8226 leukemia
SW-620 colon = system: SW-620 colon
ACHN renal = system: ACHN renal
HS 578T breast = system: HS 578T breast
SK-MEL-28 melanoma = system: SK-MEL-28 melanoma
COLO 205 colon = system: COLO 205 colon
HOP-92 NSCLC = system: HOP-92 NSCLC
M14 melanoma = system: M14 melanoma
K-562 leukemia = system: K-562 leukemia
SK-MEL-5 melanoma = system: SK-MEL-5 melanoma
IGROV1 ovarian = system: IGROV1 ovarian
TK-10 renal = system: TK-10 renal
MDA-MB-435 = system: MDA-MB-435
NCI-H226 lung = system: NCI-H226 lung
786-0 renal = system: 786-0 renal
OVCAR-5 ovarian = system: OVCAR-5 ovarian
CAKI-1 renal = system: CAKI-1 renal
HCC-2998 colon = system: HCC-2998 colon
PC-3 prostate = system: PC-3 prostate
OVCAR-4 ovarian = system: OVCAR-4 ovarian
HCT-116 colon = system: HCT-116 colon
BT-549 breast = system: BT-549 breast
SK-OV-3 ovarian = system: SK-OV-3 ovarian
SF-295 CNS = system: SF-295 CNS
SR leukemia = system: SR leukemia
NCI/ADR-RES ovarian = system: NCI/ADR-RES ovarian
SNB-19 CNS = system: SNB-19 CNS
EKVX NSCLC = system: EKVX NSCLC
RXF 393 renal = system: RXF 393 renal
HL-60(TB) leukemia = system: HL-60(TB) leukemia
SN12C renal = system: SN12C renal
HCT-15 colon = system: HCT-15 colon
SF-268 CNS = system: SF-268 CNS
SK-MEL-2 melanoma = system: SK-MEL-2 melanoma
MCF7 breast = system: MCF7 breast
U251 CNS = system: U251 CNS
OVCAR-3 ovarian = system: OVCAR-3 ovarian
UACC-62 melanoma = system: UACC-62 melanoma
MDA-N = system: MDA-N
MALME-3M melanoma = system: MALME-3M melanoma
HOP-62 NSCLC = system: HOP-62 NSCLC
CCRF-CEM leukemia = system: CCRF-CEM leukemia
NCI-H460 lung = system: NCI-H460 lung
DU-145 prostate = system: DU-145 prostate
LOX IMVI melanoma = system: LOX IMVI melanoma
SNB-75 CNS = system: SNB-75 CNS
UACC-257 melanoma = system: UACC-257 melanoma
MOLT-4 leukemia = system: MOLT-4 leukemia
UO-31 renal = system: UO-31 renal
OVCAR-8 ovarian = system: OVCAR-8 ovarian
SF-539 CNS = system: SF-539 CNS
A549 NSCLC = system: A549 NSCLC
KM12 colon = system: KM12 colon
A498 renal = system: A498 renal
NCI-H23 lung = system: NCI-H23 lung
HOP-18 NSCLC = system: HOP-18 NSCLC

Cc1ccc(C)c(C2NC(=O)c3ccccc3N2)c1 (stereo not drawn)
TGI (HT29 colon): > 54.2 µM
TGI (T-47D breast): > 100 µM
TGI (MDA-MB-231 breast): 72.7 µM
TGI (NCI-H522 lung): 3.52 µM
TGI (RPMI-8226 leukemia): 16.4 µM
TGI (SW-620 colon): > 49.6 µM
TGI (ACHN renal): > 89 µM
TGI (HS 578T breast): 7.73 µM
TGI (SK-MEL-28 melanoma): > 100 µM
TGI (COLO 205 colon): 7.06 µM
TGI (HOP-92 NSCLC): > 100 µM
TGI (M14 melanoma): 26.1 µM
TGI (K-562 leukemia): > 30.1 µM
TGI (SK-MEL-5 melanoma): 21.3 µM
TGI (IGROV1 ovarian): > 100 µM
TGI (TK-10 renal): > 100 µM
TGI (MDA-MB-435): 832 nM
TGI (NCI-H226 lung): 20.5 µM
TGI (786-0 renal): > 64 µM
TGI (OVCAR-5 ovarian): > 69.7 µM
TGI (CAKI-1 renal): 35.3 µM
TGI (HCC-2998 colon): 31.4 µM
TGI (PC-3 prostate): 28.3 µM
TGI (OVCAR-4 ovarian): > 100 µM
TGI (HCT-116 colon): 19.8 µM
TGI (BT-549 breast): > 71.6 µM
TGI (SK-OV-3 ovarian): > 75.1 µM
TGI (SF-295 CNS): > 33.1 µM
TGI (SR leukemia): > 27.4 µM
TGI (NCI/ADR-RES ovarian): 8.37 µM
TGI (SNB-19 CNS): > 49.5 µM
TGI (EKVX NSCLC): > 100 µM
TGI (RXF 393 renal): 14.3 µM
TGI (HL-60(TB) leukemia): 560 nM
TGI (SN12C renal): > 100 µM
TGI (HCT-15 colon): 50.6 µM
TGI (SF-268 CNS): > 100 µM
TGI (SK-MEL-2 melanoma): 72.6 µM
TGI (MCF7 breast): > 84.5 µM
TGI (U251 CNS): 17.9 µM
TGI (OVCAR-3 ovarian): 997 nM
TGI (UACC-62 melanoma): > 70.3 µM
TGI (MDA-N): 319 nM
TGI (MALME-3M melanoma): > 95.7 µM
TGI (HOP-62 NSCLC): > 87.6 µM
TGI (CCRF-CEM leukemia): > 25.5 µM
TGI (NCI-H460 lung): 34.5 µM
TGI (DU-145 prostate): > 50.9 µM
TGI (LOX IMVI melanoma): > 100 µM
TGI (SNB-75 CNS): 15.2 µM
TGI (UACC-257 melanoma): > 100 µM
TGI (MOLT-4 leukemia): 31.9 µM
TGI (UO-31 renal): > 100 µM
TGI (OVCAR-8 ovarian): > 79.6 µM
TGI (SF-539 CNS): 3.07 µM
TGI (A549 NSCLC): > 100 µM
TGI (KM12 colon): > 70.8 µM
TGI (A498 renal): 32 µM
TGI (NCI-H23 lung): > 62.1 µM

CO[C@H](C(=O)[C@@H](O)[C@@H](C)O)[C@@H]1Cc2cc3cc(OC4CC(OC5CC(O)C(O)C(C)O5)C(O)C(C)O4)c(C)c(O)c3c(O)c2C(=O)[C@H]1OC1CC(OC2CC(OC3CC(C)(O)C(O)C(C)O3)C(O)C(C)O2)C(O)C(C)O1 (stereo partly drawn)
GI50 (HT29 colon): 0.029 µg/mL and 0.0205 µg/mL
GI50 (NCI-H522 lung): 0.0143 µg/mL and 0.0124 µg/mL
GI50 (RPMI-8226 leukemia): 0.0265 µg/mL and 0.0214 µg/mL
GI50 (HOP-18 NSCLC): 0.558 nM
GI50 (SW-620 colon): 0.0264 µg/mL and 0.0232 µg/mL
GI50 (SK-MEL-28 melanoma): 0.02 µg/mL and 0.0182 µg/mL
GI50 (COLO 205 colon): 0.0144 µg/mL and 0.0182 µg/mL
GI50 (HOP-92 NSCLC): 0.0278 µg/mL and 0.016 µg/mL
GI50 (K-562 leukemia): 0.0253 µg/mL and 0.017 µg/mL
GI50 (SK-MEL-5 melanoma): 0.0199 µg/mL (≈ 0.0183 µM)
GI50 (IGROV1 ovarian): 0.0472 µg/mL and 0.0289 µg/mL
GI50 (TK-10 renal): 0.0792 µg/mL and 0.288 µg/mL
GI50 (MDA-MB-435): 0.0222 µg/mL and 0.0246 µg/mL and 1.25 µM
GI50 (NCI-H226 lung): 0.0179 µg/mL and 0.0115 µg/mL
GI50 (786-0 renal): 0.0255 µg/mL and 0.0152 µg/mL and 713 nM
GI50 (OVCAR-5 ovarian): 0.0328 µg/mL and 0.113 µg/mL
GI50 (CAKI-1 renal): 0.11 µg/mL and 0.0722 µg/mL
GI50 (HCC-2998 colon): 0.0395 µg/mL and 0.0243 µg/mL
GI50 (OVCAR-4 ovarian): 0.0389 µg/mL and 0.0236 µg/mL
GI50 (HCT-116 colon): 0.0194 µg/mL and 0.0116 µg/mL
GI50 (SK-OV-3 ovarian): 0.0437 µg/mL (≈ 0.0403 µM)
GI50 (SF-295 CNS): 0.0253 µg/mL (≈ 0.0233 µM)
GI50 (NCI/ADR-RES ovarian): 23 µg/mL and 0.633 µg/mL
GI50 (SNB-19 CNS): 0.0238 µg/mL and 0.0179 µg/mL
GI50 (EKVX NSCLC): 0.042 µg/mL and 0.0335 µg/mL
GI50 (RXF 393 renal): 0.0201 µg/mL (≈ 0.0185 µM)
GI50 (HL-60(TB) leukemia): 0.05 µg/mL and 0.0761 µg/mL
GI50 (SN12C renal): 0.0272 µg/mL and 0.011 µg/mL
GI50 (HCT-15 colon): 0.286 µg/mL and 0.843 µg/mL
GI50 (SF-268 CNS): 0.0242 µg/mL and 0.0192 µg/mL
GI50 (SK-MEL-2 melanoma): 0.0152 µg/mL and 0.0126 µg/mL
GI50 (MCF7 breast): 0.0143 µg/mL and 0.0152 µg/mL
GI50 (U251 CNS): 0.016 µg/mL and 0.0132 µg/mL
GI50 (OVCAR-3 ovarian): 0.0235 µg/mL and 0.0222 µg/mL
GI50 (UACC-62 melanoma): 0.011 µg/mL (≈ 0.0101 µM)
GI50 (MALME-3M melanoma): 0.0146 µg/mL and 0.0159 µg/mL
GI50 (HOP-62 NSCLC): 0.0237 µg/mL and 0.02 µg/mL
GI50 (CCRF-CEM leukemia): 0.0386 µg/mL and 0.0314 µg/mL
GI50 (NCI-H460 lung): 0.0183 µg/mL and 0.015 µg/mL
GI50 (LOX IMVI melanoma): 0.0262 µg/mL (≈ 0.0242 µM)
GI50 (SNB-75 CNS): 0.0141 µg/mL and 0.0224 µg/mL
GI50 (UACC-257 melanoma): 0.0259 µg/mL and 0.0361 µg/mL
GI50 (MOLT-4 leukemia): 0.0223 µg/mL (≈ 0.0205 µM)
GI50 (UO-31 renal): 0.132 µg/mL and 0.225 µg/mL
GI50 (OVCAR-8 ovarian): 0.0281 µg/mL and 0.0194 µg/mL
GI50 (SF-539 CNS): 0.0233 µg/mL and 0.0157 µg/mL
GI50 (A549 NSCLC): 0.027 µg/mL and 0.0212 µg/mL
GI50 (KM12 colon): 0.0197 µg/mL and 0.0207 µg/mL
GI50 (A498 renal): 0.0084 µg/mL and 0.0164 µg/mL
GI50 (NCI-H23 lung): 0.0235 µg/mL and 0.0192 µg/mL

c1c[nH]c(C23C4C5C6C4C2C6C53)n1 (stereo not drawn)
TGI (HT29 colon): > 100 µM
TGI (T-47D breast): > 100 µM
TGI (MDA-MB-231 breast): > 100 µM
TGI (NCI-H522 lung): > 100 µM
TGI (RPMI-8226 leukemia): > 100 µM
TGI (SW-620 colon): > 100 µM
TGI (ACHN renal): > 100 µM
TGI (HS 578T breast): > 100 µM
TGI (SK-MEL-28 melanoma): > 100 µM
TGI (COLO 205 colon): > 100 µM
TGI (HOP-92 NSCLC): > 100 µM
TGI (M14 melanoma): > 100 µM
TGI (K-562 leukemia): > 100 µM
TGI (SK-MEL-5 melanoma): > 100 µM
TGI (IGROV1 ovarian): > 100 µM
TGI (TK-10 renal): > 100 µM
TGI (MDA-MB-435): > 100000 nM
TGI (NCI-H226 lung): > 100 µM
TGI (786-0 renal): > 100 µM
TGI (OVCAR-5 ovarian): > 100 µM
TGI (CAKI-1 renal): > 100 µM
TGI (HCC-2998 colon): > 100 µM
TGI (PC-3 prostate): > 100 µM
TGI (OVCAR-4 ovarian): > 100 µM
TGI (HCT-116 colon): > 100 µM
TGI (BT-549 breast): > 100 µM
TGI (SK-OV-3 ovarian): > 100 µM
TGI (SF-295 CNS): > 100 µM
TGI (SR leukemia): > 100 µM
TGI (NCI/ADR-RES ovarian): > 100 µM
TGI (SNB-19 CNS): > 100 µM
TGI (EKVX NSCLC): > 100 µM
TGI (RXF 393 renal): > 100 µM
TGI (HL-60(TB) leukemia): > 100000 nM
TGI (SN12C renal): > 100 µM
TGI (HCT-15 colon): > 100 µM
TGI (SF-268 CNS): > 100 µM
TGI (SK-MEL-2 melanoma): > 100 µM
TGI (MCF7 breast): > 100 µM
TGI (U251 CNS): > 100 µM
TGI (OVCAR-3 ovarian): > 100000 nM
TGI (UACC-62 melanoma): > 100 µM
TGI (MDA-N): > 100000 nM
TGI (MALME-3M melanoma): > 100 µM
TGI (HOP-62 NSCLC): > 100 µM
TGI (CCRF-CEM leukemia): > 100 µM
TGI (NCI-H460 lung): > 100 µM
TGI (DU-145 prostate): > 100 µM
TGI (LOX IMVI melanoma): > 100 µM
TGI (SNB-75 CNS): > 100 µM
TGI (UACC-257 melanoma): > 100 µM
TGI (MOLT-4 leukemia): > 100 µM
TGI (UO-31 renal): > 100 µM
TGI (OVCAR-8 ovarian): > 100 µM
TGI (SF-539 CNS): > 100 µM
TGI (A549 NSCLC): > 100 µM
TGI (KM12 colon): > 100 µM
TGI (A498 renal): > 100 µM
TGI (NCI-H23 lung): > 100 µM
